Measured values: ChEMBL document CHEMBL1201862, “PubChem BioAssay data set” (2004)
The source made the active and inactive calls.

What was measured:
Protein skinhead-1 = biological target: T1, Protein skinhead-1 (Caenorhabditis elegans, UniProt P34707); assay type: functional
T1 sequence (P34707 whole entry): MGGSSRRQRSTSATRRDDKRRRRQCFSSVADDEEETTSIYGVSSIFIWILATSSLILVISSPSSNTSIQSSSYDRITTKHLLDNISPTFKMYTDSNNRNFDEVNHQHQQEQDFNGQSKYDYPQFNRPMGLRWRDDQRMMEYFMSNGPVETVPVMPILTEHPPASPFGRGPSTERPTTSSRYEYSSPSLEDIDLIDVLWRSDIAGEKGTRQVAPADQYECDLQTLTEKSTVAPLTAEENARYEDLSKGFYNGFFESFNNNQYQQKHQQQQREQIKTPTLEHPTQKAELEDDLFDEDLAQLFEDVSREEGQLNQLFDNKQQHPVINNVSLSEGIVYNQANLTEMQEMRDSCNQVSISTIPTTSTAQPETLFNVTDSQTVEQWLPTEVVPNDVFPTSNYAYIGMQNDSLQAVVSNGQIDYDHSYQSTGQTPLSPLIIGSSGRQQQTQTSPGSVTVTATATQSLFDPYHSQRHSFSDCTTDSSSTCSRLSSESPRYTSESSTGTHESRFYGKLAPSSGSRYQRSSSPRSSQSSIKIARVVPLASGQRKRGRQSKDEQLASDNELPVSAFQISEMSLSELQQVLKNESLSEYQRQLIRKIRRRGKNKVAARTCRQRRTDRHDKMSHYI

[1] = biological target: Luciferin 4-monooxygenase (Photinus pyralis, UniProt P08659); test: inhibition of purified Photinus pyralis luciferase – biochemical, luminescence, dose response (AID 1891)
Luciferin 4-monooxygenase, sequence (P08659 whole entry): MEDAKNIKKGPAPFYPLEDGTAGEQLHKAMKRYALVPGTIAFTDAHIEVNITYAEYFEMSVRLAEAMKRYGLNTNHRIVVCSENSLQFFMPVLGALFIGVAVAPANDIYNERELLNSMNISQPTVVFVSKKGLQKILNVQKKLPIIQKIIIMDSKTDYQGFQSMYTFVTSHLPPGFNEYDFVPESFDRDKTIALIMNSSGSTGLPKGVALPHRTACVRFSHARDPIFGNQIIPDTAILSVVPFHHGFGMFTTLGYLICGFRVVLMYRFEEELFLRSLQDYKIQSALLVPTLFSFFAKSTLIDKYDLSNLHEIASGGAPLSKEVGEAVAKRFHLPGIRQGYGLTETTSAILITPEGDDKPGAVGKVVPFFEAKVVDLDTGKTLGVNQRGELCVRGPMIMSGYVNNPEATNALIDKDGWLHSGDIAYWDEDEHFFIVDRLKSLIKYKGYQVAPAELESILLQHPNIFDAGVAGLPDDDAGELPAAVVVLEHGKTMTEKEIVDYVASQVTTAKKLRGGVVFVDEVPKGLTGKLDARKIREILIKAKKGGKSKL

[2] = Luminescence Cell-Based Dose Confirmation HTS to Identify Inhibitors of Platelet Dense Granule Release. [Related pubchem assays: 1663 (Primary HTS), 1678 (Summary of Project)]; assay type: functional
[3] = Luminescence Cell-Based Dose Response HTS to Identify Activators of Luciferase Translation or Activity in H4 […] Cells. [Related pubchem assays: 1829 (Project Summary), 1814 (Primary HTS)]; assay type: functional
[4] = viability of HCT116 lacking mutant beta-catenin – cell-based, human colon tumor, dose response (AID 1045); assay type: functional;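 further: HCT116 colon tumor cells with beta catenin knocked out; cells exposed to compound for 60 hours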
[5] = viability of PTEN-deleted HCT116 cells – cell-based, HCT116 PTEN knockout, dose response (AID 1047); assay type: functional;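 further: HCT116 colon tumor cells with PTEN knocked out; cells exposed to compound for 60 hours before readout; potency for loss of cell viability measured by luminescence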
H4 = test: Luminescence Cell-Based Dose Response HTS to Identify Activators of 5'UTR Stem-Loop Driven Prion Protein mRNA Translation in H4 Neuroglioblastoma Cells. [Related pubchem assays: 1829 (Project Summary), 1814 (Primary HTS)]; assay type: functional; conditions: Homo sapiens
[6] = Luminescence Cell-Based Dose Confirmation HTS to Identify Activators of 5'UTR Stem-Loop Driven Alpha-Synuclein mRNA Translation in H4 Neuroglioblastoma Cells. [Related pubchem assays: 1829 (Project Summary), 1814 (Primary HTS)]; assay type: functional
[7] = biological target: T2, Ubiquitin-conjugating enzyme E2 N (Homo sapiens, UniProt P61088); assay type: functional;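 further: Dose-response confirmation in a TR-FRET assay detecting UBC13-driven polyubiquitin chain formation, inhibition measured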
T2 sequence (P61088 whole entry): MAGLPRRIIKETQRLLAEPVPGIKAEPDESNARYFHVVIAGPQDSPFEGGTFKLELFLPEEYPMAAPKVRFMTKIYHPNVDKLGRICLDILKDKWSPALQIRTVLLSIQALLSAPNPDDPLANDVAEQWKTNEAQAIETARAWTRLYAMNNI

[8] = biological target: T3, Carboxy-terminal domain RNA polymerase II polypeptide A small phosphatase 1 (Homo sapiens, UniProt Q9GZU7); test: CTDSP1 inhibitors, concentration-response, biochemical, absorbance readout, ultra-high-throughput screen actives (AID 540297); assay type: functional
T3 sequence (Q9GZU7 whole entry): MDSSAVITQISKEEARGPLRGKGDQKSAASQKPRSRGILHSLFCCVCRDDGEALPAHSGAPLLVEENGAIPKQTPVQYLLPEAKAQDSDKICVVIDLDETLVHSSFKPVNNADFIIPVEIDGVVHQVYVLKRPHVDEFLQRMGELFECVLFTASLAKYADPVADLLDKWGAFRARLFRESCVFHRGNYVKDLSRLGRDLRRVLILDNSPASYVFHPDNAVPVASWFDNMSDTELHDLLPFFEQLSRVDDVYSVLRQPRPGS

[9] = biological target: FAD-linked sulfhydryl oxidase ALR (Homo sapiens, UniProt P55789); test: ALR-catalysed DTT oxidation blockers – biochemical, H2O2 detection, luminescence, cherry-pick, dose response (AID 493248)
FAD-linked sulfhydryl oxidase ALR, sequence (P55789 whole entry): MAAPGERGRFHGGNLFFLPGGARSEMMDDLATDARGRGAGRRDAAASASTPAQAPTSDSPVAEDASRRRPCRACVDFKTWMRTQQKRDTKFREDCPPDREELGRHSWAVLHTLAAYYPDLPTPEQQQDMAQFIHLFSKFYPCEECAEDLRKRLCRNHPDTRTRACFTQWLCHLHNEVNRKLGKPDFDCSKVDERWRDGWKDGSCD

[10] = Luminescence Cell-Based Dose Retest to Confirm Inhibitors of Cancer Stem Cells. [Related pubchem assays (depositor defined):AID2717, AID2721]; assay type: functional; conditions: Homo sapiens
[11] = test system: Streptococcus sp. 'group A'; test: Streptococcus pyogenes SK(-)GAS viability under kanamycin – luminescence, BacTiterGlo, confirmation, counter-screen for streptokinase expression inhibitor project, dose response (AID 1900); assay type: functional, organism-based
[12] = fluconazole-exposed Candida albicans growth modulators – fluorescence, retest, confirmation (AID 2467); assay type: functional, cell-based
[13] = Trypanosoma cruzi growth suppression in host cells – NIH3T3 host cells, beta-gal luminescence, confirmation (AID 2044); assay type: functional, cell-based;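 further: intracellular parasites grown in NIH/3T3 mouse fibroblasts as host cells; luminescent beta-galactosidase reporter signal from transgenic T. cruzi replicating inside host cells; inhibitors lower the luminescence signal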
[14] = NIH3T3 cell viability loss – ATP luminescence, mouse fibroblasts, counter-screen, dose response (AID 2010); assay type: functional, cell-based;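 further: cells exposed to compound for about 90 hours before reading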
Streptococcus = test: GAS UMAA2166 growth inhibition – luminescence, BacTiterGlo, counter-screen for streptokinase expression inhibitor project, dose response (AID 1915); assay type: functional, organism-based;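 further: potency for reduction of bacterial viability or growth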
[15] = NIH-3T3 fibroblast cytotoxicity, dose response, cytotoxicity control, cell-based, fluorescence, Alamar Blue, secondary assay (AID 2327); assay type: functional;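 further: NIH-3T3 mouse fibroblasts cultured with fluconazole at 8 µg/mL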
Streptokinase A = biological target: T4, Streptokinase A (Streptococcus pyogenes serotype M1, UniProt P10520); test: viability-normalized secreted streptokinase activity reduction – plasminogen activation absorbance, OD405, dose response (AID 1914); assay type: functional, Streptococcus pyogenes M1 GAS;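 further: secreted streptokinase activity via plasminogen activation per viability signal from cell pellet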
T4 sequence (P10520 whole entry): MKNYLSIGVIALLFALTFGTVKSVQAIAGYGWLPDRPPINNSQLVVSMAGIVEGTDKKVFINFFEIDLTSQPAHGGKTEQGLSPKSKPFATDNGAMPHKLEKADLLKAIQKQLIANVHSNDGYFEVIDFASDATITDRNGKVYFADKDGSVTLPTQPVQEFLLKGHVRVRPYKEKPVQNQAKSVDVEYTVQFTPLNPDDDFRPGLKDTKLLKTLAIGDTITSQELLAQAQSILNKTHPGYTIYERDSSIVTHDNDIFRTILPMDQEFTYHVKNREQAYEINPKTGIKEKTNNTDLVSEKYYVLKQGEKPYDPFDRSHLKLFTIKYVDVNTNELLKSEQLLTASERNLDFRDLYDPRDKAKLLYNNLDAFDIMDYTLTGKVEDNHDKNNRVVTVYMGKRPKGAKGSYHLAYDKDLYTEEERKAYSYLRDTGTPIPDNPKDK

## O=C(NCCC1=CCCCC1)NC1CCCCC1
Protein skinhead-1
  IC50: > 100 µM (inactive)
[1]
  EC50: > 112 µM (not active)
[2]
  EC50: > 112 µM (not active)

## CC1=NN(c2ccccc2)C(=O)/C1=C/c1cc2cc(C)ccc2nc1N1CCCCC1
[3]
  EC50: 17.1 µM (active)
[4]
  EC50: 25.2 µM (active)
[5]
  EC50: 17.8 µM (active)
H4
  EC50: > 120 µM (inconclusive)
[6]
  EC50: 8.69 µM (active)

## O=C(NC(=S)Nc1ccc(N2CCN(C(=O)c3ccccc3)CC2)cc1)c1cccs1
[7]
  IC50: > 20 µM (inactive)

## Cc1cc(C)c(C)c(S(=O)(=O)N[C@@H](C)C(=O)OCc2cc(=O)n3cc(Br)ccc3n2)c1C
[8]
  IC50: 7.42 µM (active)

## O=C(NCSc1ccncn1)c1ccccc1
[9]
  AC50: 1.49 µM (active)

## CC(C)C(=O)Nc1ncc2c(n1)CC(c1cccs1)CC2=O (centres undefined)
[1]
  EC50: > 112 µM (not active)
[2]
  EC50: > 112 µM (not active)

## COc1cc(C(=O)Nc2ccc(Br)cc2C(=O)c2ccccc2Cl)cc(OC)c1OC
[4]
  EC50: 29 µM (active)
[5]
  EC50: 153 µM (active)

## C#CCOCCOCCOCCNc1nc(N2CCN(C(=O)[C@H]([C@@H](C)CC)n3cc([C@@H](N)CC(C)C)nn3)CC2)nc(N2CCN(C(=O)[C@H]([C@@H](C)CC)n3cc([C@@H](N)CC(C)C)nn3)CC2)n1
[7]
  IC50: > 20 µM (inactive)

## Cc1ccc(OCCCC(=O)NNC(=O)c2ccccn2)cc1
[7]
  IC50: > 20 µM (inactive)

## Cc1nn(-c2ccc(F)cc2)c(Cl)c1/C=N/NC(=O)c1cccc(S(=O)(=O)N2CCCC2)c1
[8]
  IC50: 10.7 µM (active)

## O=C(N/N=C/c1ccc2c(c1)OCO2)c1ccc(COCC(F)(F)C(F)F)cc1
[10]
  AC50: 1.12 µM (active)
[8]
  IC50: 9.06 µM (active)

## OC(CNCC1CCCO1)Cn1c2ccc(Br)cc2c2cc(Br)ccc21 (centres undefined)
[11]
  EC50: 3.18 µM (active)
[4]
  EC50: 4.46 µM (active)
[12]
  EC50: > 38 µM (not active)
[13]
  EC50: 533 nM (active)
[5]
  EC50: 4.41 µM (active)
[14]
  EC50: > 60 µM (inconclusive)
Streptococcus
  EC50: 8.12 µM (active)
[15]
  EC50: 9.05 µM (inconclusive)
Streptokinase A
  EC50: 7.22 µM (active)
